Test results from PubChem BioAssay (NCI).
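Test compounds were applied to cells in 96-well plates for 48 hours at 5 doses. GI50: concentration for 50% inhibition of growth. TGI: concentration producing complete growth inhibition.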 Where a SMILES comes first, the peptide text is derived from it. Bridges are numbered along the chain shown (N, C = ends).

Key:
Test in all cases: NCI-60 cell line screen, 48 h
[1] = tested on: OVCAR-5 ovarian
[2] = tested on: SN12C renal
[3] = tested on: SK-MEL-2 melanoma
[4] = tested on: HOP-92 NSCLC
[5] = tested on: TK-10 renal
[6] = tested on: HOP-62 NSCLC
[7] = tested on: COLO 205 colon
[8] = tested on: HL-60(TB) leukemia
[9] = tested on: HCT-15 colon
[10] = tested on: MCF7 breast

Row | SMILES | TGI [1] | TGI [2] | TGI [3] | TGI [4] | TGI [5] | TGI [6] | TGI [7] | TGI [8] | TGI [9] | GI50 [1] | GI50 [7] | GI50 [8] | GI50 [10] | TGI [10] | GI50 [2] | GI50 [3] | GI50 [4] | GI50 [5] | GI50 [6] | GI50 [9]
1 | CCC(C)C1NC(=O)C(CC(C)C)NC(=O)C(C(C)C)NC(=O)C2CSSCC(NC1=O)C(=O)N2 (centres undefined) (cyclo(CCVLI); disulfide 1-2; configuration not given here) | 0.381 µM | 0.351 µM | 0.363 µM | 0.248 µM | 1.93 µM | 0.554 µM | 0.223 µM | 0.339 µM | 7.12 µM | – | – | – | – | – | – | – | – | – | – | –
2 | Nc1nc(N)c(CCCCc2ccccc2)c(/C=C/c2ccc([N+](=O)[O-])cc2)n1 | 15.8 µM | 8.96 µM | 10.8 µM | 2.21 µM | 6.72 µM | 12.4 µM | 47.6 µM | 3.14 µM | 7.09 µM | – | – | – | – | – | – | – | – | – | – | –
3 | O=c1oc2c(O)c(O)cc3c(=O)oc4c(O)c(O)cc1c4c23 | > 100 µM | > 100 µM | > 100 µM | 99 µM | > 100 µM | – | > 100 µM | > 100 µM | > 100 µM | > 100 µM | > 100 µM | > 100 µM | – | – | – | – | – | – | – | –
4 | C=C(C)C1CC=C(C)C(O)([C@@]2(O)C[C@H](C(=C)C)CC=C2C)C1 (some centres undefined) | 63.5 µM | 33.2 µM | 35.9 µM | 40.6 µM | > 100 µM | 35 µM | – | 47.2 µM | – | – | – | – | – | – | – | – | – | – | – | –
5 | C=C1C(=O)O[C@H]2[C@H]1CC/C(CNC(=O)C(C)c1ccc(CC(C)C)cc1)=C\CC[C@@]1(C)O[C@@H]21 (some centres undefined) | 4.04 µM | 3.26 µM | 3.18 µM | 2.92 µM | 3.02 µM | 12.2 µM | 3.83 µM | – | 3.25 µM | 1.92 µM | 1.93 µM | – | 1.62 µM | 3.68 µM | 1.63 µM | 1.6 µM | 1.5 µM | 1.66 µM | 3.07 µM | 1.47 µM
6 | CC[C@@]1(O)C(=O)OCc2c1cc1n(c2=O)Cc2cc3cccc(N)c3nc2-1 | > 100 µM | > 100 µM | 65.6 µM | > 100 µM | > 100 µM | 6.24 µM | > 100 µM | > 100 µM | – | 25.8 µM | 13.9 µM | 3.52 µM | – | – | 3.58 µM | 29.7 µM | > 100 µM | > 100 µM | 2.36 µM | –
7 | CCC1=CCC(P(=O)(c2ccccc2)c2ccccc2)CC1C (centres undefined) | > 100 µM | > 100 µM | 83.5 µM | 71.6 µM | > 100 µM | – | > 100 µM | 53.6 µM | > 100 µM | – | – | – | – | – | – | – | – | – | – | –
8 | CC1(C)C2=CCCC(=O)[C@@]2(C)CC[C@@H]1O | > 100 µM | > 100 µM | > 100 µM | > 100 µM | > 100 µM | > 100 µM | > 100 µM | > 100 µM | – | – | – | – | – | – | – | – | – | – | – | –
9 | O=C(CO)CC(=O)C(=O)Nc1cccc(C(F)(F)F)c1 | > 100 µM | > 100 µM | > 100 µM | > 100 µM | > 100 µM | > 100 µM | > 100 µM | > 100 µM | > 100 µM | – | – | – | – | – | – | – | – | – | – | –
10 | COc1ccc(C(=O)Nc2ccn(CCOC(=O)c3ccc(OC)cc3)c(=O)n2)cc1 | > 100 µM | > 100 µM | > 100 µM | > 100 µM | > 100 µM | > 100 µM | > 100 µM | > 100 µM | > 100 µM | – | – | – | – | – | – | – | – | – | – | –
